The values that follow are results of earlier work, collected in patent publication US20130142871A1, “ORAL DOSAGE FORM OF DEFERASIROX” (Ratiopharm GmbH, priority 2010, published 2013).

For the series the following is noted: see WO 2007/045445, page 2, third paragraph.

In the case of `O=C(O)c1ccc(-n2nc(-c3ccccc3O)nc2-c2ccccc2O)cc1` [Deferasirox, 4-[(3Z,5E)-3,5-bis(6-oxo-1-cyclohexa-2,4-dienylidene)-1,2,4-triazolidine-1-yl]benzoic acid], the solubility in water entry is on record as “poorly soluble in water”.
